Laboratory results taken from article PMC7265341, “Quantifying CDK inhibitor selectivity in live cells” (Nature Communications, 2020).
Read-outs that look alike come from different tables or passages of the source.

Columns and labels:
[1] = biological target: CDK14/Cyclin Y (Homo sapiens, UniProt O94921); assay: NanoBRET live-cell target engagement, CDK14-NanoLuc/Cyclin Y in HEK-293; format: binding; settings: CDK14/Y, read-out: Inhibition at 10µM (%)
[2] = biological target: CDK5/CDK5R1 (Homo sapiens, UniProt Q00535); assay: NanoBRET live-cell target engagement, CDK5-NanoLuc/CDK5R1 in HEK-293; format: binding; settings: CDK5/CDK5R1, read-out: Inhibition at 10µM (%)
[3] = biological target: T1, CDK11A/Cyclin L2 (Homo sapiens, UniProt Q9UQ88); assay: NanoBRET live-cell target engagement, CDK11A-NanoLuc/Cyclin L2 in HEK-293; format: binding; settings: CDK11a/L2, read-out: Inhibition at 10µM (%)
T1 sequence (Q9UQ88 1-783): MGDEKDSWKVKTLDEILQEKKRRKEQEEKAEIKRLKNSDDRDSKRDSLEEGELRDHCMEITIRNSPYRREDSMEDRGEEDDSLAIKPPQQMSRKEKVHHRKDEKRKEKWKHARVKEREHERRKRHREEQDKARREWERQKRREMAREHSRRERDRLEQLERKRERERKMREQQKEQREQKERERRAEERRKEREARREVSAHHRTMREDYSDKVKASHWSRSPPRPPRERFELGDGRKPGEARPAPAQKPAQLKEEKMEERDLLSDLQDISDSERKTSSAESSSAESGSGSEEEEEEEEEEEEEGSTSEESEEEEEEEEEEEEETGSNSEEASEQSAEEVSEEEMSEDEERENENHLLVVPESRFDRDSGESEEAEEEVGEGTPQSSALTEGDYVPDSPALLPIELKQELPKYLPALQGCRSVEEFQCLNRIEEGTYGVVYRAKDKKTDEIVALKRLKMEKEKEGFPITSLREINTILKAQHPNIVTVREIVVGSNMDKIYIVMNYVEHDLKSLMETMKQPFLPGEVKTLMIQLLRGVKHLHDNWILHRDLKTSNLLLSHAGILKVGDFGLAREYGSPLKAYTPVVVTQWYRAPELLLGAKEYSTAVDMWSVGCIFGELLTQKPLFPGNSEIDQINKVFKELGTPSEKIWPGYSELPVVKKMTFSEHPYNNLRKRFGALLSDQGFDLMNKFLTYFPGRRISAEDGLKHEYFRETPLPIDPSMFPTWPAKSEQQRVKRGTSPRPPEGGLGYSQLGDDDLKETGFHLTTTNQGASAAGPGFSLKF

[4] = biological target: CDK15/Cyclin Y (Homo sapiens, UniProt Q96Q40); assay: NanoBRET live-cell target engagement, NanoLuc-CDK15/Cyclin Y in HEK-293; format: binding; settings: CDK15/Y; for IC50: read-out: IC50; for inhibition at 10 µM: read-out: Inhibition at 10µM (%)
[5] = biological target: CDK17/Cyclin Y (Homo sapiens, UniProt Q00537); assay: NanoBRET live-cell target engagement, CDK17-NanoLuc/Cyclin Y in HEK-293; format: binding; settings: CDK17/Y, read-out: Inhibition at 10µM (%)
[6] = biological target: CDK19/Cyclin C (Homo sapiens, UniProt Q9BWU1); assay: NanoBRET live-cell target engagement, NanoLuc-CDK19/Cyclin C in HEK-293; settings: read-out: Inhibition at 10µM (%), CDK19/C
[7] = biological target: CDK13/Cyclin K (Homo sapiens, UniProt Q14004); assay: NanoBRET live-cell target engagement, CDK13-NanoLuc/Cyclin K in HEK-293; format: binding; settings: CDK13/K, read-out: Inhibition at 10µM (%)
[8] = biological target: CDK4/Cyclin D1 (Homo sapiens, UniProt P11802); assay: NanoBRET live-cell target engagement, NanoLuc-CDK4/Cyclin D1 in HEK-293; format: binding; settings: CDK4/D1, read-out: Inhibition at 10µM (%)
[9] = biological target: CDK16/Cyclin Y (Homo sapiens, UniProt Q00536); assay: NanoBRET live-cell target engagement, CDK16-NanoLuc/Cyclin Y in HEK-293; format: binding; settings: CDK16/Y; for IC50: read-out: IC50; for inhibition at 10 µM: read-out: Inhibition at 10µM (%)
[10] = biological target: CDK10/Cyclin L2 (Homo sapiens, UniProt Q15131); assay: NanoBRET live-cell target engagement, CDK10-NanoLuc/Cyclin L2 in HEK-293; settings: read-out: Inhibition at 10µM (%), CDK10/L2
[11] = biological target: CDK12/Cyclin K (Homo sapiens, UniProt Q9NYV4); assay: NanoBRET live-cell target engagement, CDK12-NanoLuc/Cyclin K in HEK-293; format: binding
[12] = biological target: CDK1/Cyclin E1 (Homo sapiens, UniProt P06493); assay: NanoBRET live-cell target engagement, CDK1-NanoLuc/Cyclin E1 in HEK-293; format: binding; settings: CDK1/E1, read-out: Inhibition at 10µM (%)
[13] = biological target: CDK3/Cyclin E1 (Homo sapiens, UniProt Q00526); assay: NanoBRET live-cell target engagement, CDK3-NanoLuc/Cyclin E1 in HEK-293; format: binding; settings: CDK3/E1, read-out: Inhibition at 10µM (%)
[14] = biological target: CDK11B/Cyclin L2 (Homo sapiens, UniProt P21127); assay: NanoBRET live-cell target engagement, CDK11B-NanoLuc/Cyclin L2 in HEK-293; format: binding; settings: CDK11b/L2, read-out: Inhibition at 10µM (%)
[15] = biological target: CDK20/Cyclin H (Homo sapiens, UniProt Q8IZL9); assay: NanoBRET live-cell target engagement, NanoLuc-CDK20/Cyclin H in HEK-293; format: binding; settings: CDK20/H, read-out: Inhibition at 10µM (%)
[16] = biological target: CDK8/Cyclin C (Homo sapiens, UniProt P49336); assay: NanoBRET live-cell target engagement, NanoLuc-CDK8/Cyclin C in HEK-293; format: binding; settings: CDK8/C, read-out: Inhibition at 10µM (%)
[17] = biological target: CDK7 (Homo sapiens, UniProt P50613); assay: NanoBRET live-cell target engagement, NanoLuc-CDK7 in HEK-293; format: binding; settings: CDK7, read-out: Inhibition at 10µM (%)
[18] = biological target: CDK2/Cyclin E1 (Homo sapiens, UniProt P24941); assay: NanoBRET live-cell target engagement, CDK2-NanoLuc/Cyclin E1 in HEK-293; format: binding; settings: CDK2/E1, read-out: Inhibition at 10µM (%)
[19] = biological target: CDK9/Cyclin K (Homo sapiens, UniProt P50750); assay: NanoBRET live-cell target engagement, NanoLuc-CDK9/Cyclin K in HEK-293; format: binding; settings: CDK9/K, read-out: Inhibition at 10µM (%)

Chain of CDK16/Cyclin Y (Q00536 whole entry): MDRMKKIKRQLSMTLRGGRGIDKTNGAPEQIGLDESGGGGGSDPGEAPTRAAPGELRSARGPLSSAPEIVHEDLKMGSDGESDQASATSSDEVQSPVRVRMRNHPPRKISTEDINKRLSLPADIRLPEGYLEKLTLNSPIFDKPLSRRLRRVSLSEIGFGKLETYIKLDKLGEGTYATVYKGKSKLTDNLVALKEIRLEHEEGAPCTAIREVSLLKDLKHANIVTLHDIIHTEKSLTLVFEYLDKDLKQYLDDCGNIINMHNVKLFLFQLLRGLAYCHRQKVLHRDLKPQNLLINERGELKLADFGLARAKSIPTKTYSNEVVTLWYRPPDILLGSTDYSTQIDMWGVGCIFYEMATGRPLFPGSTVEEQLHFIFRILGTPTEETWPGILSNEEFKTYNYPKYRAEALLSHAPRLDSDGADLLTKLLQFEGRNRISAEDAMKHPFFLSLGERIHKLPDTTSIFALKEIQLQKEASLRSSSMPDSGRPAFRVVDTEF
Chain of CDK16/Cyclin Y (Q8ND76 whole entry partner): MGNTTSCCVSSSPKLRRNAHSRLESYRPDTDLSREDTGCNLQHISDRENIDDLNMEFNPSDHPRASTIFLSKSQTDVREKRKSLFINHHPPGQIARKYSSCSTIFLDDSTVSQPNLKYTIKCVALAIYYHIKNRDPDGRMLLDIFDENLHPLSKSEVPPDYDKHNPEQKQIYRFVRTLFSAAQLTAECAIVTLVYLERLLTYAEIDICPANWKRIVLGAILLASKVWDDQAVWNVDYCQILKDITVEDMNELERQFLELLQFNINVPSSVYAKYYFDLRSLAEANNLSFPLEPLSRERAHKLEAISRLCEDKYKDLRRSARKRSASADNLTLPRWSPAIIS
Chain of CDK1/Cyclin E1 (P06493 whole entry): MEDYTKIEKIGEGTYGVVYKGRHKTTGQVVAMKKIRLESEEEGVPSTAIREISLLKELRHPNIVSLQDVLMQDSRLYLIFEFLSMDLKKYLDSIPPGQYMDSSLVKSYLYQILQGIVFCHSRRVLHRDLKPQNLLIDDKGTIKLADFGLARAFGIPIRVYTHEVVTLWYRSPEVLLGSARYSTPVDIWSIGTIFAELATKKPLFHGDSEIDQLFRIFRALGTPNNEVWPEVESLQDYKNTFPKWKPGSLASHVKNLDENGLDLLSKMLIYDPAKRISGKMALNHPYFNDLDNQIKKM
Chain of CDK1/Cyclin E1 (P24864 whole entry partner): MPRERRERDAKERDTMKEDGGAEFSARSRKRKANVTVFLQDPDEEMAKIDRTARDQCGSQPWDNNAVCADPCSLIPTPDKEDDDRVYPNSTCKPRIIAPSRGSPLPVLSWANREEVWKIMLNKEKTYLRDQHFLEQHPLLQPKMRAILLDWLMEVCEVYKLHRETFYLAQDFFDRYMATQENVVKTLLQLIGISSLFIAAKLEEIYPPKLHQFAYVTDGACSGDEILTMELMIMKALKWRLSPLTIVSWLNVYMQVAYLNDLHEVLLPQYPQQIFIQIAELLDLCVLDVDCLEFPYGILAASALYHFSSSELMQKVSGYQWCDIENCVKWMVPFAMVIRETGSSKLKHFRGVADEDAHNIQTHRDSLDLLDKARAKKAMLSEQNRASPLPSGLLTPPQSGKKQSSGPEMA
Chain of CDK15/Cyclin Y (Q96Q40 whole entry): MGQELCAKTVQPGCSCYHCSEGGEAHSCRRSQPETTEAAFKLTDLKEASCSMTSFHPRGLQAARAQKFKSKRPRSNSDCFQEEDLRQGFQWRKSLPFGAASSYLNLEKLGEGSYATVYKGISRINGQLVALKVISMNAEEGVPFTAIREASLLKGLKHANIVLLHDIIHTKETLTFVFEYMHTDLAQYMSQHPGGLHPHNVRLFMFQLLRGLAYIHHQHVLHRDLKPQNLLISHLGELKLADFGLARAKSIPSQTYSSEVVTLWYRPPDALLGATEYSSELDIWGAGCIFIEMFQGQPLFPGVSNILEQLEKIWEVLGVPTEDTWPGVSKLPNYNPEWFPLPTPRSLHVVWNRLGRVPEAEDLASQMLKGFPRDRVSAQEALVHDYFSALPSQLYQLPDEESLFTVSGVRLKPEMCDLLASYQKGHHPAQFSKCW
Chain of CDK15/Cyclin Y (Q8ND76 whole entry partner): as the sequence (Q8ND76 whole entry partner) above
Chain of CDK4/Cyclin D1 (P11802 whole entry): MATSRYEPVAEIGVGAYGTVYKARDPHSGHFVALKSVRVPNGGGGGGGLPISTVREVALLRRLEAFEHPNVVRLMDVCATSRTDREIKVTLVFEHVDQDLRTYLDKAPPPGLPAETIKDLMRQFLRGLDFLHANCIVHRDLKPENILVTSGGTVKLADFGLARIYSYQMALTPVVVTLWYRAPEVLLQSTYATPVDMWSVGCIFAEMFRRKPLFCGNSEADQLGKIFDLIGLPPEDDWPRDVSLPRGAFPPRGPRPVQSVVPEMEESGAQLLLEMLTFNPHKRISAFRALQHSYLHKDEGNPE
Chain of CDK4/Cyclin D1 (P24385 whole entry partner): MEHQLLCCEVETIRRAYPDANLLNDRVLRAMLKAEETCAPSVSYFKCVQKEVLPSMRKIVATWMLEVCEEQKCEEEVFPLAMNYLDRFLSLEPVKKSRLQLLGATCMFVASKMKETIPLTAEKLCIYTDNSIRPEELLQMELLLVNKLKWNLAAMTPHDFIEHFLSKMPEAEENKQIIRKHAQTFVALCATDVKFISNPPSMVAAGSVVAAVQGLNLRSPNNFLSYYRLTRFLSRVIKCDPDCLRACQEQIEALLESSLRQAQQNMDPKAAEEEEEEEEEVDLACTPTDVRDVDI
Chain of CDK10/Cyclin L2 (Q15131 whole entry): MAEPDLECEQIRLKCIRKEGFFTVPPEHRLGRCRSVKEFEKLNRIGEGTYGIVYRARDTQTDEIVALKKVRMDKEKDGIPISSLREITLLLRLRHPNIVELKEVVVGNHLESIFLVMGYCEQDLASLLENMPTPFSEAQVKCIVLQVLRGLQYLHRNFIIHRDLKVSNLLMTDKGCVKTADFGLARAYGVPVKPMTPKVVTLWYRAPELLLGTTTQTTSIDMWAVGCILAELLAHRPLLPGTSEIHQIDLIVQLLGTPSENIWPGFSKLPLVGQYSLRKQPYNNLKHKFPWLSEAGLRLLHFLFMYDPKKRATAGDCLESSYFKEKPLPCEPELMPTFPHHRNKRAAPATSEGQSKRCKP
Chain of CDK11B/Cyclin L2 (P21127 1-782 isoform P21127-2): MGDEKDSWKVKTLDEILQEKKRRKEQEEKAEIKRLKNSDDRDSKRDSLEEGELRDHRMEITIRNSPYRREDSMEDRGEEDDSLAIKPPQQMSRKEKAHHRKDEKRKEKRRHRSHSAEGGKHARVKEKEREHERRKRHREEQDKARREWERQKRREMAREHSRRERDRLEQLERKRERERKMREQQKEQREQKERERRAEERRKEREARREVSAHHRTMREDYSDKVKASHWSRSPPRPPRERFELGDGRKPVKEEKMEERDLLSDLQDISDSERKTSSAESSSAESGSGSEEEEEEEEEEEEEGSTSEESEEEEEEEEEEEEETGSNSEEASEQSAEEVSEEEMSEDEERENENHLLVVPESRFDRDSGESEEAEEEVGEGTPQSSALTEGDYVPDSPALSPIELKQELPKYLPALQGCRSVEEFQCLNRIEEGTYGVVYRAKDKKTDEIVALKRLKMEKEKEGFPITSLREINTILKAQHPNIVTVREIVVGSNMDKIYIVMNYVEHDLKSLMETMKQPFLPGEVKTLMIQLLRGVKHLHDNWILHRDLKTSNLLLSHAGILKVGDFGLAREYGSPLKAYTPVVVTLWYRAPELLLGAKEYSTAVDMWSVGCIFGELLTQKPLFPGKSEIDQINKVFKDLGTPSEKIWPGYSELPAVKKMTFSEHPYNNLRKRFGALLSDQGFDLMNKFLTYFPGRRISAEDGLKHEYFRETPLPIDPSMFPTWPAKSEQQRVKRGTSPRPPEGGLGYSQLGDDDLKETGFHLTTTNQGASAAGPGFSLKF
Chain of CDK19/Cyclin C (Q9BWU1 whole entry): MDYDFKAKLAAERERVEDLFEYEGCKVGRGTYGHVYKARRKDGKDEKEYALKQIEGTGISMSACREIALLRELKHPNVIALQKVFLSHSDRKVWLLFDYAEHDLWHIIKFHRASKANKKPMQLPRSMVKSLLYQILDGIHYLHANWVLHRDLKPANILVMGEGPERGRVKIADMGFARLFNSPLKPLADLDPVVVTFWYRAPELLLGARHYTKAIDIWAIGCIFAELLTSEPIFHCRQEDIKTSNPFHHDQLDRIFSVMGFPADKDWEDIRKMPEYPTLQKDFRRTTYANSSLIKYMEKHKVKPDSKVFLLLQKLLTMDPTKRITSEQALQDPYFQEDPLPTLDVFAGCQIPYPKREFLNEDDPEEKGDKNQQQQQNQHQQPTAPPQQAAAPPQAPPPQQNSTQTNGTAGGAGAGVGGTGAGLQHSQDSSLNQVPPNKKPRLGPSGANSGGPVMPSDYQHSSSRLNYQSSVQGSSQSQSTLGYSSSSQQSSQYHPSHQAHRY
Chain of CDK19/Cyclin C (P24863 whole entry partner): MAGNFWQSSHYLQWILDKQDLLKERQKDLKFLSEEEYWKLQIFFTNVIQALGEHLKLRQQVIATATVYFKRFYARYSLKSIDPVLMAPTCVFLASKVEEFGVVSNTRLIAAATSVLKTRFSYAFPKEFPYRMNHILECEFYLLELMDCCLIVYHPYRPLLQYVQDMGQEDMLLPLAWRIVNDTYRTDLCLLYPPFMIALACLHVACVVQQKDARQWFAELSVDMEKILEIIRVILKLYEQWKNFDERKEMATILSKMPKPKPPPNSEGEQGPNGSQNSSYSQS
Chain of CDK3/Cyclin E1 (Q00526 whole entry): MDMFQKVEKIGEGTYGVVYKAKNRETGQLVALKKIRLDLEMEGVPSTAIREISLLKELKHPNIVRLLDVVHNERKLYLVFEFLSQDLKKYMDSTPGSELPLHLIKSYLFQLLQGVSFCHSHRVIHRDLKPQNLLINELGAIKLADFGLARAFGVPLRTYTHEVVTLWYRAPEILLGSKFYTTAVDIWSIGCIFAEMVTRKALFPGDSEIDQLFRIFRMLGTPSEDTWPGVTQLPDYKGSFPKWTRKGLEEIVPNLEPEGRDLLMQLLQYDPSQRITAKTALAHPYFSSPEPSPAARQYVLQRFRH
Chain of CDK3/Cyclin E1 (P24864 whole entry partner): as the sequence (P24864 whole entry partner) above

CNC(=O)c1nn(C)c2c1C(C)(C)Cc1cnc(Nc3ccc(N4CCN(C)CC4)cc3)nc1-2 [Milciclib]
inhibition at 10 µM ([1]; average): 74.3%
inhibition at 10 µM ([1]; experiment 1): 71.9%
inhibition at 10 µM ([1]; experiment 2): 76.8%
inhibition at 10 µM ([2]; average): 82.1%
inhibition at 10 µM ([2]; experiment 1): 77.8%
inhibition at 10 µM ([2]; experiment 2): 86.4%
inhibition at 10 µM ([3]; average): 22.7%
inhibition at 10 µM ([3]; experiment 1): 20.3%
inhibition at 10 µM ([3]; experiment 2): 25%
IC50 ([4]; average (± SEM where n=3)): 880 ± 60 nM
inhibition at 10 µM ([4]; average): 86%
IC50 ([4]; experiment 1): 970 nM
inhibition at 10 µM ([4]; experiment 1): 83.8%
IC50 ([4]; experiment 2): 898 nM
inhibition at 10 µM ([4]; experiment 2): 88.1%
IC50 ([4]; experiment 3): 778 nM
inhibition at 10 µM ([5]; average): 87.8%
inhibition at 10 µM ([5]; experiment 1): 86.7%
inhibition at 10 µM ([5]; experiment 2): 88.9%
inhibition at 10 µM ([6]; average): 19.2%
inhibition at 10 µM ([6]; experiment 1): 44.9%
inhibition at 10 µM ([6]; experiment 2): -6.6%
inhibition at 10 µM ([7]; average): 13.7%
inhibition at 10 µM ([7]; experiment 1): 15%
inhibition at 10 µM ([7]; experiment 2): 12.5%
inhibition at 10 µM ([8]; average): 98.1%
inhibition at 10 µM ([8]; experiment 1): 98.8%
inhibition at 10 µM ([8]; experiment 2): 97.4%
IC50 ([9]; average (± SEM where n=3)): 300 ± 40 nM
IC50 ([9]; experiment 1): 383 nM
inhibition at 10 µM ([9]; experiment 1): 86.4%
IC50 ([9]; experiment 2): 260 nM
inhibition at 10 µM ([9]; experiment 2): 90.1%
IC50 ([9]; experiment 3): 273 nM
inhibition at 10 µM ([10]; average): 30.6%
inhibition at 10 µM ([10]; experiment 1): 32.3%
inhibition at 10 µM ([10]; experiment 2): 28.9%
inhibition at 10 µM ([11]; CDK12/K, experiment 1, read-out: Inhibition at 10µM (%)): 16.8%
inhibition at 10 µM ([11]; CDK12/K, experiment 2, read-out: Inhibition at 10µM (%)): 10.6%
inhibition at 10 µM ([11]; read-out: Inhibition at 10µM (%), CDK12/K, average): 13.7%
inhibition at 10 µM ([12]; average): 61.1%
inhibition at 10 µM ([12]; experiment 1): 52.9%
inhibition at 10 µM ([12]; experiment 2): 69.2%
inhibition at 10 µM ([13]; average): 77.7%
inhibition at 10 µM ([13]; experiment 1): 74.4%
inhibition at 10 µM ([13]; experiment 2): 80.9%
inhibition at 10 µM ([14]; average): 14.4%
inhibition at 10 µM ([14]; experiment 1): 14.6%
inhibition at 10 µM ([14]; experiment 2): 14.3%
inhibition at 10 µM ([15]; experiment 1): 50.1%
inhibition at 10 µM ([15]; experiment 2): 36.3%
inhibition at 10 µM ([16]; average): 16%
inhibition at 10 µM ([16]; experiment 1): 44.2%
inhibition at 10 µM ([16]; experiment 2): -12.1%
inhibition at 10 µM ([17]; average): 92.1%
inhibition at 10 µM ([17]; experiment 1): 89.4%
inhibition at 10 µM ([17]; experiment 2): 94.8%
inhibition at 10 µM ([18]; average): 76.6%
inhibition at 10 µM ([18]; experiment 1): 75.5%
inhibition at 10 µM ([18]; experiment 2): 77.7%
inhibition at 10 µM ([19]; average): 55.3%
inhibition at 10 µM ([19]; experiment 1): 50.1%
inhibition at 10 µM ([19]; experiment 2): 60.5%
